Laboratory results published in patent US9950072B2, “Controlled release formulations for the delivery of HIF-1 inhibitors” (The Johns Hopkins University, priority 2012, dated 2018).
Entries after “also recorded” stand apart in the source; their conditions may differ.

Columns and labels:
[1] = test system: photoreceptor cells (ONL) of C57BL/6 mice; test: Outer nuclear layer (ONL) thickness after intraocular injection; type: in vivo; settings: 0.25 μg intraocular; one week
Procedure: ONL thickness was measured. […] Mice were euthanized, a mark was placed at 12:00 at the corneal limbus, and eyes were removed and embedded in optimal cutting temperature compound. Ten micrometer frozen sections were cut parallel to the 12:00 or 9:00 meridian through the optic nerve and fixed in 4% paraformaldehyde. The sections were stained with hematoxylin and eosin, examined with an Axioskop microscope (Zeiss, Thornwood, N.Y.), and images were digitized using a three charge-coupled device (CCD) color video camera (IK-TU40A; Toshiba, Tokyo, Japan) and a frame grabber. Image-Pro Plus software (Media Cybernetics, Silver Spring, Md.) was used to outline the ONL.

[2] = test system: HIF-1 transcriptional activity and ocular NV; settings: intraocular injections of 0.01-0.25 μg; cited from earlier work
[3] = test system: retinal function in C57BL/6 mice; test: Electroretinograms (ERGs) after intraocular injection
Procedure: For scotopic recordings, mice were dark adapted overnight, and for photopic recordings, mice were adapted for 10 min to background white light at an intensity of 30 cd/m^2. The mice were anesthetized with an intraperitoneal injection of ketamine hydrochloride (100 mg/kg body weight) and xylazine (5 mg/kg body weight). Pupils were dilated with Midrin P containing of 0.5% tropicamide and 0.5% phenylephrine, hydrochloride (Santen Pharmaceutical Co., Osaka, Japan). The mice were placed on a pad heated to 39° C. and platinum loop electrodes were placed on each cornea after application of Gonioscopic prism solution (Alcon Labs, Fort Worth, Tex.). A reference electrode was placed subcutaneously in the anterior scalp between the eyes and a ground electrode was inserted into the tail. The head of the mouse was held in a standardized position in a ganzfeld bowl illuminator that ensured equal illumination of the eyes. Recordings for both eyes were made simultaneously with electrical impedance balanced. Scotopic ERGs were recorded at 11 intensity levels of white light ranging from −3.00 to 1.40 log cd-s/m2. Six measurements were averaged for each flash intensity. Photopic ERGs were recorded at three intensity levels of white light ranging from 0.60 to 1.40 log cd-s/m2 with a 30 cd/m2 background. Five measurements were averaged for each flash intensity.

[4] = test system: choroidal NV in C57BL/6 mice; test: Laser-induced choroidal NV (rupture of Bruch's membrane) mouse model; type: in vivo; settings: 14 days, vs fellow eyes injected with vehicle
Procedure: Pathogen-free C57BL/6 mice (Charles River, Wilmington, Mass.) were treated in accordance with the Association for Research in Vision and Ophthalmology Statement for the Use of Animals in Ophthalmic and Vision Research and the guidelines of the Johns Hopkins University Animal Care and Use Committee.
Choroidal NV was induced by laser photocoagulation-induced rupture of Bruch's membrane as previously described (Tobe, T. et al., Am. J. Pathol. 135(5): 1641-1646 (1998)). […] Laser photocoagulation (75 μm spot size, 0.1 sec duration, 120 mW) was performed in the 9, 12, and 3 o'clock positions of the posterior pole of each eye with the slit lamp delivery system of an OcuLight GL diode laser (Iridex, Mountain View, Calif.) and a handheld cover slip as a contact lens to view the retina. Production of a bubble at the time of laser, which indicates rupture of Bruch's membrane, is an important factor in obtaining CNV; therefore, only burns in which a bubble was produced were included in the study.
Immediately after laser-induced rupture of Bruch's membrane, mice were randomized to various treatment groups for intraocular injections. Intravitreal injections were done under a dissecting microscope with a Harvard Pump Microinjection System and pulled glass micropipettes.
At 1, 4, 7, and 14 days after injection, fundus photographs were taken with a Micron III® camera (Phoenix Research Laboratories Inc., Pleasanton, Calif.). After 14 days, the mice were perfused with 1 ml of PBS containing 25 mg/ml of fluorescein-labeled dextran (2×10^6 Daltons average molecular weight; Sigma-Aldrich, St. Louis, Mo.) and choroidal flat mounts were examined by fluorescence microscopy. Images were captured with a Nikon Digital Still Camera DXM1200 (Nikon Instruments Inc., New York, N.Y.). Image analysis software (Image-Pro® Plus; Media Cybernetics, Silver Spring, Md.) was used to measure the total area of CNV at each rupture site with the investigator masked with respect to treatment group.

[5] = test system: retinal NV in C57BL/6 mice with oxygen-induced ischemic retinopathy; test: Oxygen-induced ischemic retinopathy, area of retinal NV; type: in vivo; settings: measured five days later (P17)
Procedure: At P17, the area of retinal NV on the surface of the retina was measured. […] Retinas were dissected, washed, and incubated with goat-anti rat polyclonal antibody conjugated with Alexa 488 (Invitrogen, Carlsbad, Calif.) at 1:500 dilution at room temperature for 45 minutes and flat mounted. An observer masked with respect to treatment group measured the area of NV per retina by image analysis.

[6] = 0.1 μg intraocular injection after laser
[7] = 1.0 μg intraocular injection after laser
[8] = 10 μg intraocular injection after laser
[9] = 1 μg intraocular, fourteen days

| Compound | outer nuclear layer thickness [1] | effect on HIF-1 transcriptional activity and ocular NV [2] | mean scotopic and photopic b-wave amplitudes ([3]; 0.05 μg intraocular) | ERG amplitudes (scotopic a-wave, scotopic b-wave, photopic b-wave) ([3]; 0.25 μg intraocular, one week) | area of CNV [4, 6] | area of CNV [4, 7] | area of CNV [4, 8] | area of RNV ([5]; 0.01 μg intraocular at P12) | area of RNV ([5]; 0.1 μg intraocular at P12) | area of RNV ([5]; 1.0 μg intraocular at P12) | mean scotopic and photopic b-wave amplitudes [3, 9] |
| --- | --- | --- | --- | --- | --- | --- | --- | --- | --- | --- | --- |
| C[C@H]1O[C@@H](O[C@H]2[C@@H](O)C[C@H](O[C@H]3[C@@H](O)C[C@H](O[C@H]4CC[C@@]5(C)[C@H](CC[C@@H]6[C@@H]5C[C@@H](O)[C@]5(C)[C@@H](C7=CC(=O)OC7)CC[C@]65O)C4)O[C@@H]3C)O[C@@H]2C)C[C@H](O)[C@@H]1O [digoxin] | reduction in outer nuclear layer thickness at 3 of 6 measurement locations | suppress HIF-1 transcriptional activity and ocular NV | significant reduction in mean scotopic and photopic b-wave amplitudes | significant reduction in mean scotopic a-wave amplitude, mean scotopic b-wave amplitude, and mean photopic b-wave amplitude | – | – | – | – | – | – | – |
| COc1cccc2c1C(=O)c1c(O)c3c(c(O)c1C2=O)C[C@@](O)(C(C)=O)C[C@@H]3O[C@H]1C[C@H](N)[C@H](O)[C@H](C)O1 [DNR, daunorubicin] | – | – | – | – | had no significant effect; also recorded: did not show a statistically significant reduction in the area of CNV | had no significant effect; also recorded: did not show a statistically significant reduction in the area of CNV | suppressed choroidal NV; also recorded: statistically significant reduction in the area of CNV | had no significant effect; also recorded: did not show a statistically significant reduction in the area of RNV | caused a small reduction; also recorded: statistically significant reduction in the area of RNV | markedly reduced the area of retinal NV; also recorded: statistically significant reduction in the area of RNV | significant reduction in mean scotopic and photopic b-wave amplitudes |
| COc1cccc2c1C(=O)c1c(O)c3c(c(O)c1C2=O)C[C@@](O)(C(=O)CO)C[C@@H]3O[C@H]1C[C@H](N)[C@H](O)[C@H](C)O1 [DXR, doxorubicin] | – | – | – | – | did not have a significant effect; also recorded: did not show a statistically significant reduction in the area of CNV | did not have a significant effect; also recorded: did not show a statistically significant reduction in the area of CNV | suppressed choroidal NV; also recorded: statistically significant reduction in the area of CNV | but not 0.1 or 0.01 μg, significantly reduced; also recorded: did not show a statistically significant reduction in the area of RNV | but not 0.1 or 0.01 μg, significantly reduced; also recorded: did not show a statistically significant reduction in the area of RNV | significantly reduced the area of retinal NV; also recorded: statistically significant reduction in the area of RNV | significant reduction in mean scotopic and photopic b-wave amplitudes |
